Laboratory results taken from ChEMBL document CHEMBL4190326, “Novel Gomisin B analogues as potential cytotoxic agents: Design, synthesis, biological evaluation and docking studies” (Eur J Med Chem, 2017).
Active and inactive are the calls of the source. The rule behind the calls is not given here.

Experiments:
[1] = target: T1, Tubulin (Homo sapiens) (UniProt P68371+Q9H4B7+P0DPH7+P68366+Q13509+Q71U36+P04350+Q3ZCM7+P07437+P68363+Q9BQE3+Q6PEY2+Q13885+Q9BVA1+Q9BUF5); assay: Induction of tubulin polymerization in human HeLa cells assessed as increase in insoluble tubulin fraction after 24 hrs by Western blot analysis; assay type: cell-based
[2] = target: T1, Tubulin (Homo sapiens); assay: Induction of tubulin polymerization in human HeLa cells assessed as multiple spindle formation after 24 hrs by DAPI staining/confocal microscopy-based immunofluorescence analysis; assay type: cell-based
[3] = species on record: Bos taurus; assay: Inhibition of bovine brain tubulin polymerization measured for 1 hr at 1 min interval by fluorescence assay relative to control
[4] = test system: SiHa; assay: Cytotoxicity against human SiHa cells assessed as reduction in cell viability measured after 48 hrs by SRB assay; assay type: functional, cell-based
[5] = test system: DU-145; assay: Cytotoxicity against human DU145 cells assessed as reduction in cell viability measured after 48 hrs by SRB assay; assay type: functional, cell-based; conditions: DU-145, 48 h
[6] = test system: IMR-32; assay: Cytotoxicity against human IMR32 cells assessed as reduction in cell viability measured after 48 hrs by SRB assay; assay type: functional, cell-based; conditions: IMR-32, 48 h
[7] = Selectivity index, ratio of IC50 for HEK293 cells to IC50 for human DU145 cells; assay type: toxicity; conditions: HEK293 cells versus DU145 cells, read-out: Ratio IC50
[8] = test system: HEK293; assay: Cytotoxicity against HEK293 cells assessed as reduction in cell viability measured after 48 hrs by SRB assay; assay type: cell-based; conditions: Homo sapiens, HEK293, 48 h
[9] = test system: PANC-1; assay: Cytotoxicity against human PANC1 cells assessed as reduction in cell viability measured after 48 hrs by SRB assay; assay type: functional, cell-based; conditions: PANC-1, 48 h
[10] = test system: A549; assay: Cytotoxicity against human A549 cells assessed as reduction in cell viability measured after 48 hrs by SRB assay; assay type: functional, cell-based; conditions: A549, 48 h
[11] = test system: MDA-MB-231; assay: Cytotoxicity against human MDA-MB-231 cells assessed as reduction in cell viability measured after 48 hrs by SRB assay; assay type: functional, cell-based; conditions: MDA-MB-231, 48 h

| Activity [1] | Activity [2] | fold change (FC) [3] | SMILES | IC50 [4] [µM] | IC50 [5] [µM] | IC50 [6] [µM] | selectivity ratio [7] | IC50 [8] [µM] | IC50 [9] [µM] | IC50 [10] [µM] | IC50 [11] [µM] |
| --- | --- | --- | --- | --- | --- | --- | --- | --- | --- | --- | --- |
| Active | Active | 2.68 | CC(=O)O[C@H]1C(=O)[C@@]2(C)[C@H]([C@H](OC(=O)c3ccccc3)[C@]3(O)C[C@H](OC(=O)[C@H](O)[C@@H](NC(=O)c4ccccc4)c4ccccc4)C(C)=C1C3(C)C)[C@]1(OC(C)=O)CO[C@@H]1C[C@@H]2O | – | – | – | – | – | – | – | – |
| – | – | – | COc1cc2c(c(OC)c1OC)-c1c(cc3c(c1OC)OCO3)C[C@H](C)[C@@](C)(O)/C2=N/OCc1cn(CC(=O)Nc2ccc(C)cc2)nn1 | 64.9 | 86.4 | 79.2 | 1.15 | > 100 | 71.6 | 84.6 | 72.6 |
| – | – | – | COc1cc2c(c(OC)c1OC)-c1c(cc3c(c1OC)OCO3)C[C@H](C)[C@@](C)(O)/C2=N/OCc1cn(-c2ccc(C(C)=O)cc2)nn1 | 71.1 | 92.4 | 86.4 | 1.08 | > 100 | 80.3 | 95.7 | 70.8 |
| – | – | – | COc1cc2c(c(OC)c1OC)-c1c(cc3c(c1OC)OCO3)C[C@H](C)[C@@](C)(O)/C2=N/OCc1cn(-c2ccc(Cl)cc2)nn1 | 98.5 | 99.4 | 83.9 | 1.01 | > 100 | 92.7 | > 100 | 82.6 |
| – | – | – | COc1cc2c(c(OC)c1OC)-c1c(cc3c(c1OC)OCO3)C[C@H](C)[C@@](C)(O)/C2=N/OCc1cn(-c2cccc([N+](=O)[O-])c2)nn1 | 96.5 | 98.4 | 86.1 | 1 | > 100 | 95.7 | 96.1 | 83.7 |
| – | – | – | COc1cc2c(c(OC)c1OC)-c1c(cc3c(c1OC)OCO3)C[C@H](C)[C@@](C)(O)/C2=N/OCc1cn(-c2cccc(C)c2Cl)nn1 | 69.2 | 88.6 | 78.3 | 1.1 | > 100 | 81.9 | 85.6 | 73.8 |
| – | – | – | COc1cc2c(c(OC)c1OC)-c1c(cc3c(c1OC)OCO3)C[C@H](C)[C@@](C)(O)/C2=N/OCc1cn(-c2ccccc2C#N)nn1 | 86.4 | 92.7 | 79.8 | 1.1 | > 100 | 87.3 | 94.2 | 71.1 |
| – | – | – | C#CCO/N=C1\c2cc(OC)c(OC)c(OC)c2-c2c(cc3c(c2OC)OCO3)C[C@H](C)[C@@]1(C)O | 96.1 | 99.5 | 82.6 | 1.01 | > 100 | 97.2 | 98.1 | 80.4 |
| – | – | – | COc1cc(-n2cc(CO/N=C3\c4cc(OC)c(OC)c(OC)c4-c4c(cc5c(c4OC)OCO5)C[C@H](C)[C@@]3(C)O)nn2)cc(OC)c1Cl | 83.2 | 94.7 | 79.1 | 1.1 | > 100 | 86.4 | 94.2 | 73.2 |
| – | – | – | COc1cccc2c1C(=O)c1c(O)c3c(c(O)c1C2=O)C[C@@](O)(C(=O)CO)C[C@@H]3O[C@H]1C[C@H](N)[C@H](O)[C@H](C)O1 [DOXORUBICIN] | 1.5 | 2.4 | 2.3 | – | 10 | 1.9 | 1.6 | – |
| – | – | – | COc1cc2c(c(OC)c1OC)-c1c(cc3c(c1OC)OCO3)C[C@H](C)[C@@](C)(O)/C2=N/OCc1cn(CC(=O)Nc2ccc(I)cc2Cl)nn1 | 86.4 | 98.7 | 81.6 | 1.01 | > 100 | 92.1 | 97.5 | 82.9 |
| – | – | – | COc1cc2c(c(OC)c1OC)-c1c(cc3c(c1OC)OCO3)C[C@H](C)[C@@](C)(O)/C2=N/OCc1cn(-c2ccc(I)cc2)nn1 | 76.4 | 89.4 | 89.7 | 1.1 | > 100 | 83.4 | 90.8 | 76.8 |
| – | – | – | COc1cc2c(c(OC)c1OC)-c1c(cc3c(c1OC)OCO3)C[C@H](C)[C@@](C)(O)/C2=N/O | 83.4 | 94.7 | 81.4 | 1.05 | > 100 | 84.9 | 96.4 | 79.5 |
